Assay results taken from ChEMBL document CHEMBL1933032, “Synthesis and evaluation of 4-alkoxy-[1'-cyclobutyl-spiro(3,4-dihydrobenzopyran-2,4'-piperidine)] analogues as histamine-3 receptor antagonists” (Bioorg Med Chem Lett, 2012).

Molecular target: Cytochrome P450 3A4 (Homo sapiens, UniProt P08684)
Experiment: Inhibition of CYP3A4
Format: ADME
Conditions: not given

Cytochrome P450 3A4, sequence (P08684 whole entry): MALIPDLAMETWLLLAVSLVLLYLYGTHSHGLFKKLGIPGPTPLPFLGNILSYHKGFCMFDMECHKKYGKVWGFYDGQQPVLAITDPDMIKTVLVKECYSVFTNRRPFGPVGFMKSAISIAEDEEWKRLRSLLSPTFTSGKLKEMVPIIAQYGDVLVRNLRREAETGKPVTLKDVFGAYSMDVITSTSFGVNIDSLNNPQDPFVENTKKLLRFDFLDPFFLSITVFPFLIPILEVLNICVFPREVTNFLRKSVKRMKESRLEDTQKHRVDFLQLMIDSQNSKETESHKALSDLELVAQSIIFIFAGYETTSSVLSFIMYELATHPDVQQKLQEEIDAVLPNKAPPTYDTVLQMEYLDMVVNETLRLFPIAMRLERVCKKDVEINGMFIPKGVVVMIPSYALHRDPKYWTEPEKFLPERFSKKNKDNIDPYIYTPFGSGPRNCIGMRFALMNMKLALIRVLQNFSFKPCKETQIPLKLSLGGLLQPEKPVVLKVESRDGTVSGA

IC50 [µM]	Structure (SMILES)
> 30	CS(=O)(=O)CCCOc1ccc2c(c1)CCC1(CCN(C3CCC3)CC1)O2

Molecular target: Cytochrome P450 2D6 (Homo sapiens, UniProt P10635)
Experiment: Inhibition of CYP2D6
Format: ADME
Conditions: not given

Cytochrome P450 2D6, sequence (P10635 whole entry): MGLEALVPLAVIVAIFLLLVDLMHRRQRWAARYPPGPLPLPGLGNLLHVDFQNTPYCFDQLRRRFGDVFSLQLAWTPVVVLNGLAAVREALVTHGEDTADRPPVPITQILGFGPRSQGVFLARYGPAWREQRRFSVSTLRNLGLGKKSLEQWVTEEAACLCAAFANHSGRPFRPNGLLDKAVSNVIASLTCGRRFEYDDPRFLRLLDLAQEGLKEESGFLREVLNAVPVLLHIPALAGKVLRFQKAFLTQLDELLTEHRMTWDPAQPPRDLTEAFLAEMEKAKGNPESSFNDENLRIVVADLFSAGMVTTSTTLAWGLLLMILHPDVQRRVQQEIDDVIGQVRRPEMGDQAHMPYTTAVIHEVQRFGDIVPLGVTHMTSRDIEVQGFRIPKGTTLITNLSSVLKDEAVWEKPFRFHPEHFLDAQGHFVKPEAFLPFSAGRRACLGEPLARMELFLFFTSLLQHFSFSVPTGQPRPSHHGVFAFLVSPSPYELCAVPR

IC50 [µM]	Structure (SMILES)
11	O=S1(=O)CCC(COc2ccc3c(c2)CCC2(CCN(C4CCC4)CC2)O3)CC1
> 30	CS(=O)(=O)CCCOc1ccc2c(c1)CCC1(CCN(C3CCC3)CC1)O2

Molecular target: Cytochrome P450 2C19 (Homo sapiens, UniProt P33261)
Experiment: Inhibition of CYP2C19
Format: ADME
Conditions: not given

Cytochrome P450 2C19, sequence (P33261 whole entry): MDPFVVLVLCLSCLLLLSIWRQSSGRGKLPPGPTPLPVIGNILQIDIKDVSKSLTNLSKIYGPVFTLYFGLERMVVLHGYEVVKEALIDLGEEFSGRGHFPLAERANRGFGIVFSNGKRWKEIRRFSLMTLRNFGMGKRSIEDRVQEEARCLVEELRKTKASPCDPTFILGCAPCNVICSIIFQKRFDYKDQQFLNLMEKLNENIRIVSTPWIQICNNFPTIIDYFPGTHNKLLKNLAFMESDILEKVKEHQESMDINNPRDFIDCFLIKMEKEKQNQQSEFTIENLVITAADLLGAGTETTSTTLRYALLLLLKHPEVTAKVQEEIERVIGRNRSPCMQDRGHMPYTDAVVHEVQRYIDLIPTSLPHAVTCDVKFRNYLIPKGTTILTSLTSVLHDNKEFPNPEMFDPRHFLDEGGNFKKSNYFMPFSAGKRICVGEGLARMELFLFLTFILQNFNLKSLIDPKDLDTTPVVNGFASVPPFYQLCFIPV

IC50 [µM]	Structure (SMILES)
> 30	CS(=O)(=O)CCCOc1ccc2c(c1)CCC1(CCN(C3CCC3)CC1)O2

Test system: not listed separately
Experiment: Cmax in rat at 5 mg/kg, po
Format: ADME, organism-based
Parameters: dose 5 mg/kg, route oral
Conditions: in vivo

Cmax [ng/mL]	Structure (SMILES)
157	O=S1(=O)CCC(COc2ccc3c(c2)CCC2(CCN(C4CCC4)CC2)O3)CC1
142	CS(=O)(=O)CCCOc1ccc2c(c1)CCC1(CCN(C3CCC3)CC1)O2

Test system: not listed separately
Experiment: Half life in monkey liver microsomes
Format: ADME, Macaca mulatta, Microsome
Conditions: rhesus monkey

half-life [min]	Structure (SMILES)
> 40	O=S1(=O)CCC(COc2ccc3c(c2)CCC2(CCN(C4CCC4)CC2)O3)CC1
> 40	CS(=O)(=O)CCCOc1ccc2c(c1)CCC1(CCN(C3CCC3)CC1)O2

Molecular target: Cytochrome P450 2C9 (Homo sapiens, UniProt P11712)
Experiment: Inhibition of CYP2C9
Format: ADME
Conditions: not given

Cytochrome P450 2C9, sequence (P11712 whole entry): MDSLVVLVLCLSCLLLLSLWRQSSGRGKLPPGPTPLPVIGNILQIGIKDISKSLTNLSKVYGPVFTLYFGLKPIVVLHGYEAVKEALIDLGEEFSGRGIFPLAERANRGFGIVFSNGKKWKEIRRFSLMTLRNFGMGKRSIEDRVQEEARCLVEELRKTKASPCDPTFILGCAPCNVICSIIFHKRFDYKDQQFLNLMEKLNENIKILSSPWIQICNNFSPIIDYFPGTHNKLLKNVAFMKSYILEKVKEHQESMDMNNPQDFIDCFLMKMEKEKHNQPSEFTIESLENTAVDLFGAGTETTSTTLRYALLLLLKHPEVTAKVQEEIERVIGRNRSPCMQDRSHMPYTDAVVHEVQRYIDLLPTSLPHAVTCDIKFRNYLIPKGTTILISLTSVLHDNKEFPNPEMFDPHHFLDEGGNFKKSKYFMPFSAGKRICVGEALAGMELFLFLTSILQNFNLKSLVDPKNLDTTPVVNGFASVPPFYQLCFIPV

IC50 [µM]	Structure (SMILES)
> 30	CS(=O)(=O)CCCOc1ccc2c(c1)CCC1(CCN(C3CCC3)CC1)O2

Test system: not listed separately
Experiment: Clearance in rat at 1 mg/kg, iv
Format: ADME, organism-based
Parameters: dose 1 mg/kg, route intravenous
Conditions: in vivo

clearance [mL/min/kg]	Structure (SMILES)
23	O=S1(=O)CCC(COc2ccc3c(c2)CCC2(CCN(C4CCC4)CC2)O3)CC1
16	CS(=O)(=O)CCCOc1ccc2c(c1)CCC1(CCN(C3CCC3)CC1)O2

Test system: not listed separately
Experiment: Ratio drug uptake in brain to plasma of rat at 5 mg/kg, po measured after 6 hrs
Format: ADME, organism-based
Parameters: dose 5 mg/kg, route oral
Conditions: read-out: BPR

Kp at 6 h	Structure (SMILES)
0.73	O=S1(=O)CCC(COc2ccc3c(c2)CCC2(CCN(C4CCC4)CC2)O3)CC1
0.73	CS(=O)(=O)CCCOc1ccc2c(c1)CCC1(CCN(C3CCC3)CC1)O2

Test system: not listed separately
Experiment: Half life in human liver microsomes
Format: ADME, Microsome
Conditions: not given

half-life [min]	Structure (SMILES)
> 40	O=S1(=O)CCC(COc2ccc3c(c2)CCC2(CCN(C4CCC4)CC2)O3)CC1
> 40	CS(=O)(=O)CCCOc1ccc2c(c1)CCC1(CCN(C3CCC3)CC1)O2

Molecular target: Histamine H3 receptor (Homo sapiens, UniProt Q9Y5N1)
Experiment: Binding affinity to human histamine H3 receptor
Conditions: not given

Histamine H3 receptor (Homo sapiens, UniProt Q9Y5N1), sequence (Q9Y5N1 whole entry): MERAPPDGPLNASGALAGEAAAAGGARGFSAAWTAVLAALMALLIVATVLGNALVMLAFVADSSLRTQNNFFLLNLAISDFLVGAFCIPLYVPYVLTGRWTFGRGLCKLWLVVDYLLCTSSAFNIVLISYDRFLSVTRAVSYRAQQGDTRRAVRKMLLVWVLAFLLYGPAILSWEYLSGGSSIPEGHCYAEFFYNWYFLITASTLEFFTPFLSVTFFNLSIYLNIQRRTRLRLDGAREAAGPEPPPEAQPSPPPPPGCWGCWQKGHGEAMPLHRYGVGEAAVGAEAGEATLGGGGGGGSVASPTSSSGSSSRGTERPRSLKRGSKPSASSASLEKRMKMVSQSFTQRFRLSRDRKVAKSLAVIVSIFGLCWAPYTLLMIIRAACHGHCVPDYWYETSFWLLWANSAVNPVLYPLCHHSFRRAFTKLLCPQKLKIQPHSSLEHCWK

Ki [µM]	Structure (SMILES)
0.004	O=S1(=O)CCC(COc2ccc3c(c2)CCC2(CCN(C4CCC4)CC2)O3)CC1
0.01	CS(=O)(=O)CCCOc1ccc2c(c1)CCC1(CCN(C3CCC3)CC1)O2

Test system: not listed separately
Experiment: AUC (0 to t) in rat at 5 mg/kg, po
Format: ADME, organism-based
Parameters: dose 5 mg/kg, route oral
Conditions: plasma

AUC(0-t) [ng·h/mL]	Structure (SMILES)
713	O=S1(=O)CCC(COc2ccc3c(c2)CCC2(CCN(C4CCC4)CC2)O3)CC1
586	CS(=O)(=O)CCCOc1ccc2c(c1)CCC1(CCN(C3CCC3)CC1)O2

Molecular target: T1, Cytochrome P450 1A2 (Homo sapiens, UniProt P05177)
T1 sequence (P05177 whole entry): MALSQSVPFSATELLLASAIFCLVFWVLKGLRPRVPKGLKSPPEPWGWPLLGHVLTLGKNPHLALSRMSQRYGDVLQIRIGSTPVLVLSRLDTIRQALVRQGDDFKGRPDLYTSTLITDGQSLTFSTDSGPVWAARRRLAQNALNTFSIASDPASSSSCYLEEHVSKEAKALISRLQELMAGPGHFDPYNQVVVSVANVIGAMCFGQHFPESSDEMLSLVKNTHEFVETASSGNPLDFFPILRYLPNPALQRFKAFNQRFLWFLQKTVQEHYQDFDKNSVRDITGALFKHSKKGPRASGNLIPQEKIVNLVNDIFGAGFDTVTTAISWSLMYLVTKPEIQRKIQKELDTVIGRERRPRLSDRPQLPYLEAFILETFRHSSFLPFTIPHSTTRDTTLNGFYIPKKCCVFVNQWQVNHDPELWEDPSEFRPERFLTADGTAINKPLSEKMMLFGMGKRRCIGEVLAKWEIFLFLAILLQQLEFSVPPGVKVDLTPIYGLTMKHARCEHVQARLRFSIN
Experiment: Inhibition of CYP1A2
Format: ADME
Conditions: not given

IC50 [µM]	Structure (SMILES)
> 30	CS(=O)(=O)CCCOc1ccc2c(c1)CCC1(CCN(C3CCC3)CC1)O2

Test system: not listed separately
Experiment: Half life in mouse liver microsomes
Format: ADME, Microsome
Conditions: not given

half-life [min]	Structure (SMILES)
> 40	O=S1(=O)CCC(COc2ccc3c(c2)CCC2(CCN(C4CCC4)CC2)O3)CC1
> 40	CS(=O)(=O)CCCOc1ccc2c(c1)CCC1(CCN(C3CCC3)CC1)O2

Molecular target: Histamine H1 receptor (Homo sapiens, UniProt P35367)
Experiment: Binding affinity to human histamine H1 receptor
Conditions: not given

Histamine H1 receptor, sequence (P35367 whole entry): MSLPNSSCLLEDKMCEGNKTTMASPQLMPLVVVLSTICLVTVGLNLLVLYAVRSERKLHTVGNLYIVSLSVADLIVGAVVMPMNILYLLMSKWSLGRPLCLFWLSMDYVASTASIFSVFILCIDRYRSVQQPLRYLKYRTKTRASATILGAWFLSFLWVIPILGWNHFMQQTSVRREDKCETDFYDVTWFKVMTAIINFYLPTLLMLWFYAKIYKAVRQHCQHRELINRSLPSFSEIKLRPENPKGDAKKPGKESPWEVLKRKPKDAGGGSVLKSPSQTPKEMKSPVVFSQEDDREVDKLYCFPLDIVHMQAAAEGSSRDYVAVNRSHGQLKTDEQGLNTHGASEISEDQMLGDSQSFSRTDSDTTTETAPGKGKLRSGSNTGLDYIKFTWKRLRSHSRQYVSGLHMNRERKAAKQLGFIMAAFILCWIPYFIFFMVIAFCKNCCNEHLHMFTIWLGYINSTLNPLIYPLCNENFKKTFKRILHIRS

Ki [µM]	Structure (SMILES)
> 10	O=S1(=O)CCC(COc2ccc3c(c2)CCC2(CCN(C4CCC4)CC2)O3)CC1
> 10	CS(=O)(=O)CCCOc1ccc2c(c1)CCC1(CCN(C3CCC3)CC1)O2

Test system: not listed separately
Experiment: Half life in rat liver microsomes
Format: ADME, Microsome
Conditions: not given

half-life [min]	Structure (SMILES)
> 40	O=S1(=O)CCC(COc2ccc3c(c2)CCC2(CCN(C4CCC4)CC2)O3)CC1
> 40	CS(=O)(=O)CCCOc1ccc2c(c1)CCC1(CCN(C3CCC3)CC1)O2

Test system: not listed separately
Experiment: Half life in rat at 1 mg/kg, iv
Format: ADME, organism-based
Parameters: dose 1 mg/kg, route intravenous
Conditions: in vivo

half-life [min]	Structure (SMILES)
114	O=S1(=O)CCC(COc2ccc3c(c2)CCC2(CCN(C4CCC4)CC2)O3)CC1
54	CS(=O)(=O)CCCOc1ccc2c(c1)CCC1(CCN(C3CCC3)CC1)O2

Test system: not listed separately
Experiment: Oral bioavailability in rat at 5 mg/kg
Format: ADME, organism-based
Conditions: in vivo

bioavailability [%]	Structure (SMILES)
22	O=S1(=O)CCC(COc2ccc3c(c2)CCC2(CCN(C4CCC4)CC2)O3)CC1
13	CS(=O)(=O)CCCOc1ccc2c(c1)CCC1(CCN(C3CCC3)CC1)O2

Molecular target: Histamine H3 receptor (Rattus norvegicus, UniProt Q9QYN8)
Experiment: Binding affinity to rat histamine H3 receptor
Conditions: not given

Histamine H3 receptor (Rattus norvegicus, UniProt Q9QYN8), sequence (Q9QYN8 whole entry): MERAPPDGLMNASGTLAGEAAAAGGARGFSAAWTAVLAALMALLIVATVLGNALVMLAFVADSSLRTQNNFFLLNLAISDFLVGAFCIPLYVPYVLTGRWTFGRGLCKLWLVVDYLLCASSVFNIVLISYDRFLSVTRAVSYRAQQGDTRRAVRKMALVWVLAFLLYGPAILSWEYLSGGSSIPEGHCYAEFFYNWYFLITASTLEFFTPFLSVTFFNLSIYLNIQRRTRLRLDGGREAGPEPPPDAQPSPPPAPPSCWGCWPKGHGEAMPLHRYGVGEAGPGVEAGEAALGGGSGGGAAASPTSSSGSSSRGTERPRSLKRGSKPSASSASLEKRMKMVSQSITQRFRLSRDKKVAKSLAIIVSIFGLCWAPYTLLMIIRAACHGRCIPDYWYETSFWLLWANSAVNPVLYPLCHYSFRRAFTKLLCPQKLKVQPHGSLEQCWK

Ki [µM]	Structure (SMILES)
0.009	O=S1(=O)CCC(COc2ccc3c(c2)CCC2(CCN(C4CCC4)CC2)O3)CC1
0.041	CS(=O)(=O)CCCOc1ccc2c(c1)CCC1(CCN(C3CCC3)CC1)O2

Molecular target: Histamine H2 receptor (Homo sapiens, UniProt P25021)
Experiment: Binding affinity to human histamine H2 receptor
Conditions: not given

Histamine H2 receptor, sequence (P25021 whole entry): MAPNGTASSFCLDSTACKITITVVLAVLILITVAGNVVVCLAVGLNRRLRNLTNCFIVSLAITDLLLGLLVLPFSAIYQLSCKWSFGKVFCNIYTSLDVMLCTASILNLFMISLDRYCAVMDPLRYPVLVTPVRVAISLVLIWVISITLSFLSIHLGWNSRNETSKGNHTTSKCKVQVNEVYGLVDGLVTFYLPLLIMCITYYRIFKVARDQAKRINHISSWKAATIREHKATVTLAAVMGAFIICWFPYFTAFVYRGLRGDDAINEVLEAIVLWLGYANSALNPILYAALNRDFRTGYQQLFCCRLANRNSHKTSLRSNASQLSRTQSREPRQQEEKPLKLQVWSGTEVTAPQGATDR

Ki [µM]	Structure (SMILES)
> 10	O=S1(=O)CCC(COc2ccc3c(c2)CCC2(CCN(C4CCC4)CC2)O3)CC1
> 10	CS(=O)(=O)CCCOc1ccc2c(c1)CCC1(CCN(C3CCC3)CC1)O2

Test system: not listed separately
Experiment: Volume of distribution in rat at 1 mg/kg, iv
Format: ADME, organism-based
Parameters: dose 1 mg/kg, route intravenous
Conditions: in vivo

Vd [L/kg]	Structure (SMILES)
3.6	O=S1(=O)CCC(COc2ccc3c(c2)CCC2(CCN(C4CCC4)CC2)O3)CC1
1.2	CS(=O)(=O)CCCOc1ccc2c(c1)CCC1(CCN(C3CCC3)CC1)O2

Molecular target: Histamine H4 receptor (Homo sapiens, UniProt Q9H3N8)
Experiment: Binding affinity to human histamine H4 receptor
Conditions: not given

Ki [µM]	Structure (SMILES)
> 10	O=S1(=O)CCC(COc2ccc3c(c2)CCC2(CCN(C4CCC4)CC2)O3)CC1
> 10	CS(=O)(=O)CCCOc1ccc2c(c1)CCC1(CCN(C3CCC3)CC1)O2
